Results published in patent publication US3940382A, “1,2'-Di-N-substituted kanamycin B compounds” (Zaidan Hojin Biseibutsu Kagaku Kenkyu Kai, priority 1973, dated 1976).
Converted amounts (≈) assume the structure as drawn.

Key:
[1] = system: Staphylococcus aureus Smith; assay: MIC, serial dilution on nutrient agar; format: cell-based; conditions: Staphylococcus aureus Smith; nutrient agar, 37°C, 18 hours; read-out: Minimum Inhibitory Concentrations
[2] = system: Staphylococcus aureus FDA 209P; assay: MIC, serial dilution on nutrient agar; format: cell-based; conditions: FDA209P; Staphylococcus aureus FDA 209P; nutrient agar, 37°C, 18 hours; read-out: Minimum Inhibitory Concentrations
[3] = system: Staphylococcus aureus Terejima; assay: MIC, serial dilution on nutrient agar; format: cell-based; conditions: Staphylococcus aureus Terejima; nutrient agar, 37°C, 18 hours; read-out: Minimum Inhibitory Concentrations
Sarcina lutea PCI 1001 = assay: MIC, serial dilution on nutrient agar; format: cell-based; conditions: Micrococcus luteus, PCI1001; Sarcina lutea PCI 1001; nutrient agar, 37°C, 18 hours; read-out: Minimum Inhibitory Concentrations
Bacillus anthracis = assay: microbe, parasite or virus in culture; format: cell-based; conditions: 18 h, read-out: Minimum Inhibitory Concentrations
[4] = system: Bacillus subtilis PCI 219; assay: MIC, serial dilution on nutrient agar; format: cell-based; conditions: PCI219; Bacillus subtilis PCI 219; nutrient agar, 37°C, 18 hours; read-out: Minimum Inhibitory Concentrations
[5] = system: Bacillus subtilis NRRL B-558; assay: MIC, serial dilution on nutrient agar; format: cell-based; conditions: NRRLB558; Bacillus subtilis NRRL B-558; nutrient agar, 37°C, 18 hours; read-out: Minimum Inhibitory Concentrations
[6] = system: Bacillus cereus ATCC 10702; assay: MIC, serial dilution on nutrient agar; format: cell-based; conditions: ATCC10702; Bacillus cereus ATCC 10702; nutrient agar, 37°C, 18 hours; read-out: Minimum Inhibitory Concentrations
[7] = system: Corynebacterium bovis 1810; assay: MIC, serial dilution on nutrient agar; format: cell-based; conditions: Corynebacterium bovis 1810; nutrient agar, 37°C, 18 hours; read-out: Minimum Inhibitory Concentrations
[8] = system: Mycobacterium smegmatis ATCC 607; assay: MIC, serial dilution on nutrient agar; format: cell-based; conditions: Mycolicibacterium smegmatis, ATCC607; Mycobacterium smegmatis ATCC 607; nutrient agar, 37°C, 18 hours; read-out: Minimum Inhibitory Concentrations
[9] = system: Shigella dysenteriae JS 11910; assay: MIC, serial dilution on nutrient agar; format: cell-based; conditions: JS11910, 18 h, read-out: Minimum Inhibitory Concentrations
[10] = system: Escherichia coli K-12 ML 1630; assay: MIC, serial dilution on nutrient agar; format: cell-based; conditions: K12ML1630, 37°C, 18 hours, read-out: Minimum Inhibitory Concentrations
Protocol: (§1) The minimum inhibitory concentrations (mcg/ml) of 1,2'-di-N-[(S)-4-amino-2-hydroxybutyryl]-kanamycin B (abbreviated as 1,2'-AHB-KMB), 1,2'-di-N-[(S)-4-amino-2-hydroxybutyryl]-3',4'-dideoxykanamycin B (abbreviated as 1,2'-AHB-DKB), 1,2'-di-N-DL-isoseryl-3',4'-dideoxykanamycin B (abbreviated as 1,2'-IS-DKB) and 1,2'-di-N-DL-isoseryl-kanamycin B (abbreviated as 1,2'-IS-KMB) against various microorganisms were determined according to serial dilution method using nutrient agar medium at 37°C, the estimation being effected after 18 hours incubation. For comparison, the minimum inhibitory concentrations of kanamycin B (abbreviated as KMB) and 3',4'-dideoxykanamycin B (abbreviated as DKB) were also determined in the same manner as mentioned above.

[11] = system: Shigella flexneri 4b JS 11811; assay: MIC, serial dilution on nutrient agar; format: cell-based; conditions: 4BJS11811, 37°C, 18 hours, read-out: Minimum Inhibitory Concentrations
Protocol: as §1

Shigella sonnei JS 11746 = assay: MIC, serial dilution on nutrient agar; format: cell-based; conditions: JS11746, 37°C, 18 hours, read-out: Minimum Inhibitory Concentrations
Protocol: as §1

Salmonella typhosa T-63 = assay: MIC, serial dilution on nutrient agar; format: cell-based; conditions: Salmonella enterica, 18 h, read-out: Minimum Inhibitory Concentrations
[12] = system: Salmonella enteritidis 1891; assay: MIC, serial dilution on nutrient agar; format: cell-based; conditions: Salmonella enterica, ENTERITIDIS, 18 h, read-out: Minimum Inhibitory Concentrations
Proteus vulgaris OX 19 = assay: MIC, serial dilution on nutrient agar; format: cell-based; conditions: OX19; Proteus vulgaris OX 19; nutrient agar, 37°C, 18 hours; read-out: Minimum Inhibitory Concentrations
[13] = system: Klebsiella pneumoniae PCI 602; assay: MIC, serial dilution on nutrient agar; format: cell-based; conditions: PCI602; Klebsiella pneumoniae PCI 602; nutrient agar, 37°C, 18 hours; read-out: Minimum Inhibitory Concentrations
[14] = system: Klebsiella pneumoniae 22 -3038; assay: MIC, serial dilution on nutrient agar; format: cell-based; conditions: 223038; Klebsiella pneumoniae 22 -3038; nutrient agar, 37°C, 18 hours; read-out: Minimum Inhibitory Concentrations
Escherichia coli NIHJ = assay: MIC, serial dilution on nutrient agar; format: cell-based; conditions: Escherichia coli NIHJ; nutrient agar, 37°C, 18 hours; read-out: Minimum Inhibitory Concentrations
Escherichia coli K-12 = assay: MIC, serial dilution on nutrient agar; format: cell-based; conditions: K12; Escherichia coli K-12; nutrient agar, 37°C, 18 hours; read-out: Minimum Inhibitory Concentrations
[15] = system: Escherichia coli K-12 ML 1629; assay: MIC, serial dilution on nutrient agar; format: cell-based; conditions: K12ML1629; Escherichia coli K-12 ML 1629; nutrient agar, 37°C, 18 hours; read-out: Minimum Inhibitory Concentrations
[16] = system: Escherichia coli K-12 ML 1410; assay: MIC, serial dilution on nutrient agar; format: cell-based; conditions: Escherichia coli, K12ML1410, 18 h, read-out: Minimum Inhibitory Concentrations
[17] = system: Escherichia coli K-12 ML 1410 R81; assay: MIC, serial dilution on nutrient agar; format: cell-based; conditions: 18 h, read-out: Minimum Inhibitory Concentrations
[18] = system: Escherichia coli LA290 R55; assay: MIC, serial dilution on nutrient agar; format: cell-based; conditions: LA290R55, 18 h, read-out: Minimum Inhibitory Concentrations
[19] = system: Escherichia coli LA290 R56; assay: MIC, serial dilution on nutrient agar; format: cell-based; conditions: LA290R56, 18 h, read-out: Minimum Inhibitory Concentrations
[20] = system: Escherichia coli LA290 R64; assay: MIC, serial dilution on nutrient agar; format: cell-based; conditions: LA290R64, 18 h, read-out: Minimum Inhibitory Concentrations
Escherichia coli W677 = assay: MIC, serial dilution on nutrient agar; format: cell-based; conditions: Escherichia coli W677; nutrient agar, 37°C, 18 hours; read-out: Minimum Inhibitory Concentrations
[21] = system: Escherichia coli JR66/W677; assay: MIC, serial dilution on nutrient agar; format: cell-based; conditions: Escherichia coli JR66/W677; nutrient agar, 37°C, 18 hours; read-out: Minimum Inhibitory Concentrations
[22] = system: Pseudomonas aeruginosa A3; assay: MIC, serial dilution on nutrient agar; format: cell-based; conditions: Pseudomonas aeruginosa, A3, 18 h, read-out: Minimum Inhibitory Concentrations
[23] = system: Pseudomonas aeruginosa No.12; assay: MIC, serial dilution on nutrient agar; format: cell-based; conditions: Pseudomonas aeruginosa No.12; nutrient agar, 37°C, 18 hours; read-out: Minimum Inhibitory Concentrations
[24] = system: Pseudomonas aeruginosa TI-13; assay: MIC, serial dilution on nutrient agar; format: cell-based; conditions: Pseudomonas aeruginosa, TI13, 18 h, read-out: Minimum Inhibitory Concentrations
[25] = system: Pseudomonas aeruginosa GN315; assay: MIC, serial dilution on nutrient agar; format: cell-based; conditions: Pseudomonas aeruginosa GN315; nutrient agar, 37°C, 18 hours; read-out: Minimum Inhibitory Concentrations
[26] = system: Pseudomonas aeruginosa 99; assay: MIC, serial dilution on nutrient agar; format: cell-based; conditions: Pseudomonas aeruginosa 99; nutrient agar, 37°C, 18 hours; read-out: Minimum Inhibitory Concentrations
[27] = system: kanamycin-resistant strains; conditions: strains phosphorylating the 3'-hydroxyl group of kanamycins; cited from earlier work
[28] = system: Escherichia coli JR66/W677; conditions: strain adenylylating the 2"-hydroxyl group; cited from earlier work
drug-resistant bacteria = conditions: cited from earlier work
[29] = system: kanamycin-resistant bacteria; conditions: some kanamycin-resistant bacteria; cited from earlier work
[30] = system: ribostamycin-resistant bacteria; conditions: some ribostamycin-resistant bacteria; cited from earlier work

For NC[C@@H]1CC[C@@H](N)[C@@H](O[C@H]2[C@H](O)[C@@H](O[C@H]3O[C@H](CO)[C@@H](O)[C@H](N)[C@H]3O)[C@H](N)C[C@@H]2N)O1 [DKB, 3',4'-dideoxykanamycin B, reference compound], the MIC [1] was < 0.2 µg/mL, the MIC [2] was < 0.2 µg/mL and the MIC [3] was < 0.2 µg/mL. For the same molecule, the MIC (Sarcina lutea PCI 1001) was 6.25 µg/mL (≈ 13.8 µM), the MIC (Bacillus anthracis) was < 0.2 µg/mL and the MIC [4] was < 0.2 µg/mL. The MIC [5] was < 0.2 µg/mL, the MIC [6] was 0.78 µg/mL (≈ 1.73 µM) and the MIC [7] was 3.13 µg/mL (≈ 6.93 µM). For the same molecule, the MIC [8] was 0.39 µg/mL (≈ 0.864 µM), the MIC [9] was 1.56 µg/mL (≈ 3.45 µM) and the MIC [10] was 0.78 µg/mL (≈ 1.73 µM). For the same molecule, the MIC [11] was 1.56 µg/mL (≈ 3.45 µM), the MIC (Shigella sonnei JS 11746) was 0.78 µg/mL (≈ 1.73 µM) and the MIC (Salmonella typhosa T-63) was < 0.2 µg/mL. The MIC [12] was 1.56 µg/mL (≈ 3.45 µM), the MIC (Proteus vulgaris OX 19) was < 0.2 µg/mL and the MIC [13] was 0.39 µg/mL (≈ 0.864 µM). It also gave an MIC [14] of 100 µg/mL (≈ 221 µM), an MIC (Escherichia coli NIHJ) of 0.39 µg/mL (≈ 0.864 µM) and an MIC (Escherichia coli K-12) of 0.78 µg/mL (≈ 1.73 µM). It also gave an MIC [15] of 0.78 µg/mL (≈ 1.73 µM), an MIC [16] of 1.56 µg/mL (≈ 3.45 µM) and an MIC [17] of 1.56 µg/mL (≈ 3.45 µM). It also gave an MIC [18] of 50 µg/mL (≈ 111 µM), an MIC [19] of 12.5 µg/mL (≈ 27.7 µM) and an MIC [20] of 6.25 µg/mL (≈ 13.8 µM). For the same molecule, the MIC (Escherichia coli W677) was 0.2 µg/mL (≈ 0.443 µM), the MIC [21] was 50 µg/mL (≈ 111 µM) and the MIC [22] was 1.56 µg/mL (≈ 3.45 µM). For the same molecule, the MIC [23] was 0.78 µg/mL (≈ 1.73 µM), the MIC [24] was 1.56 µg/mL (≈ 3.45 µM) and the MIC [25] was > 100 µg/mL. The MIC [26] was 3.13 µg/mL (≈ 6.93 µM), the “effectiveness against kanamycin-resistant strains” value [27] was “actually effective” and the “activity against kanamycin-resistant strains such as Escherichia coli JR66/W677” value [28] was “practically inactive”. The “antibacterial activity against the drug-resistant bacteria” value (drug-resistant bacteria) was “improved antibacterial activity”.
In the case of NCC[C@H](O)C(=O)N[C@@H]1C[C@H](N)[C@@H](O[C@H]2O[C@H](CN)[C@@H](O)[C@H](O)[C@H]2N)[C@H](O[C@@H]2O[C@H](CO)[C@@H](O)[C@H]2O)[C@H]1O [butirosin B, 1-N-[(S)-α-hydroxy-γ-amino-n-butyryl]-ribostamycin], the “activity against kanamycin-resistant bacteria” value [29] is given as “active” and the “activity against ribostamycin-resistant bacteria” value [30] is given as “active”.
